Data published in ChEMBL document CHEMBL4411321, “Discovery of Potent, Selective, and Orally Bioavailable Estrogen-Related Receptor-γ Inverse Agonists To Restore the Sodium Iodide Symporter Function in Anaplastic Thyroid Cancer” (J Med Chem, 2019).

Legend:
in vivo [1] = settings: Sprague-Dawley, rat, plasma, iv, 1 mg/kg
[2] = Oral bioavailability in Sprague-Dawley rat at 9 to 10 mg/kg via gavage by LC-MS/MS analysis; type: ADME, organism-based; settings: in vivo
in vivo [3] = settings: Sprague-Dawley, rat, iv, 1 mg/kg
Description: Volume of distribution at steady state in Sprague-Dawley rat at 1 mg/kg, iv by LC-MS/MS analysis

[4] = AUC in Sprague-Dawley rat at 9 to 10 mg/kg, po via gavage by LC-MS/MS analysis; type: ADME, organism-based; settings: in vivo
CYP1A2 = biological target: T1, CYP1A2 (Homo sapiens, UniProt P05177); experiment: Inhibition of CYP1A2 in human liver microsomes assessed as reduction in phenacetin O-deethylase activity at 10 uM preincubated for 5 mins followed by NADPH addition and measured after 15 mins by LC-MS/MS analysis relative to control; type: ADME; settings: probe phenacetin (O-deethylation)
T1 sequence (P05177 whole entry): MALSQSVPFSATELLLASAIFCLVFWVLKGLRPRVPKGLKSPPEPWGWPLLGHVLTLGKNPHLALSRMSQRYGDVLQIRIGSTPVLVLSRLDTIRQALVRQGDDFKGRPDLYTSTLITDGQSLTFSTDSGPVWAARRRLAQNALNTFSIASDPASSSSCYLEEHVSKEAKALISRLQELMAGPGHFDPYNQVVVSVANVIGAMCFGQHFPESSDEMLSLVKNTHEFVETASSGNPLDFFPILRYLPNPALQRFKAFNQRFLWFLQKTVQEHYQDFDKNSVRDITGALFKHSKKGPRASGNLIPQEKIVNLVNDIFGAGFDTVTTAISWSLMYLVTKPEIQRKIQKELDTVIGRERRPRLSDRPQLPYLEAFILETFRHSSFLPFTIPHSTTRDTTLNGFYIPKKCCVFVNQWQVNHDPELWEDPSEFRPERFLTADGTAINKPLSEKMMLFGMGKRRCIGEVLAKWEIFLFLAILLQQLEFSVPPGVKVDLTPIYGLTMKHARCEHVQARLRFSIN

[5] = biological target: T2, Steroid hormone receptor ERR1 (Homo sapiens, UniProt P11474)
T2 sequence (P11474 whole entry): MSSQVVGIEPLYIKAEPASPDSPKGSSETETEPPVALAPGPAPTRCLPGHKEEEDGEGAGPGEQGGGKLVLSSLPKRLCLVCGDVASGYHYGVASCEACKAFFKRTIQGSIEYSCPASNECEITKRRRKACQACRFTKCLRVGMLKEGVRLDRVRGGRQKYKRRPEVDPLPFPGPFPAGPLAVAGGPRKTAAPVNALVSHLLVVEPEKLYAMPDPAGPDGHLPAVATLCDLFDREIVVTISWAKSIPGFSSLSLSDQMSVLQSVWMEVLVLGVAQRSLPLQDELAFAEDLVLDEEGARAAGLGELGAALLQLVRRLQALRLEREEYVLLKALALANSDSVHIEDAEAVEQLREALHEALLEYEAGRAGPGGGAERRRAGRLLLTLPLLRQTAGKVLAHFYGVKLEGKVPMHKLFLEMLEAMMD

CYP2D6 = CYP2D6 (Homo sapiens, UniProt P10635); experiment: Inhibition of CYP2D6 in human liver microsomes assessed as reduction in dextromethorphan O-demethylase activity at 10 uM preincubated for 5 mins followed by NADPH addition and measured after 15 mins by LC-MS/MS analysis relative to control; type: ADME; settings: probe dextromethorphan (O-demethylation)
CYP2D6, sequence (P10635 whole entry): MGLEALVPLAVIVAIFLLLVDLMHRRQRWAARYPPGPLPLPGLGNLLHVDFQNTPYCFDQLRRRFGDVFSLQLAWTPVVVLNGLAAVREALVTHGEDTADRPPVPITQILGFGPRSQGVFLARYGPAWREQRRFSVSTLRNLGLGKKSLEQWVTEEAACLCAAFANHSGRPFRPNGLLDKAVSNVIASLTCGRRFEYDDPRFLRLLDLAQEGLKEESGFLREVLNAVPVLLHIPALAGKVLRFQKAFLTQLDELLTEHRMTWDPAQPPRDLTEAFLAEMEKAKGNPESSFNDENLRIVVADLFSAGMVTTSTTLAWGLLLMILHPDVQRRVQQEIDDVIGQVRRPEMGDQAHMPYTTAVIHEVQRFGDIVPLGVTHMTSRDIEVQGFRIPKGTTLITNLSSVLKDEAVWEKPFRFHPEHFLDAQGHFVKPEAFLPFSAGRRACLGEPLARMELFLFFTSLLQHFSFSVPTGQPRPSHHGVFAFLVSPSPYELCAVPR

[6] = Metabolic stability in rat liver microsomes assessed as compound remaining at 1 uM after 30 mins in presence of NADPH regeneration system by LC-MS/MS analysis; type: ADME, Microsome; settings: read-out: Stability
[7] = Metabolic stability in human liver microsomes assessed as compound remaining at 1 uM after 30 mins in presence of NADPH regeneration system by LC-MS/MS analysis; type: ADME, Microsome; settings: read-out: Stability
[8] = Metabolic stability in dog liver microsomes assessed as compound remaining at 1 uM after 30 mins in presence of NADPH regeneration system by LC-MS/MS analysis; type: ADME, Canis lupus familiaris, Microsome; settings: read-out: Stability
[9] = biological target: Voltage-gated inwardly rectifying potassium channel KCNH2 (Homo sapiens, UniProt Q12809)
Voltage-gated inwardly rectifying potassium channel KCNH2, sequence (Q12809 whole entry): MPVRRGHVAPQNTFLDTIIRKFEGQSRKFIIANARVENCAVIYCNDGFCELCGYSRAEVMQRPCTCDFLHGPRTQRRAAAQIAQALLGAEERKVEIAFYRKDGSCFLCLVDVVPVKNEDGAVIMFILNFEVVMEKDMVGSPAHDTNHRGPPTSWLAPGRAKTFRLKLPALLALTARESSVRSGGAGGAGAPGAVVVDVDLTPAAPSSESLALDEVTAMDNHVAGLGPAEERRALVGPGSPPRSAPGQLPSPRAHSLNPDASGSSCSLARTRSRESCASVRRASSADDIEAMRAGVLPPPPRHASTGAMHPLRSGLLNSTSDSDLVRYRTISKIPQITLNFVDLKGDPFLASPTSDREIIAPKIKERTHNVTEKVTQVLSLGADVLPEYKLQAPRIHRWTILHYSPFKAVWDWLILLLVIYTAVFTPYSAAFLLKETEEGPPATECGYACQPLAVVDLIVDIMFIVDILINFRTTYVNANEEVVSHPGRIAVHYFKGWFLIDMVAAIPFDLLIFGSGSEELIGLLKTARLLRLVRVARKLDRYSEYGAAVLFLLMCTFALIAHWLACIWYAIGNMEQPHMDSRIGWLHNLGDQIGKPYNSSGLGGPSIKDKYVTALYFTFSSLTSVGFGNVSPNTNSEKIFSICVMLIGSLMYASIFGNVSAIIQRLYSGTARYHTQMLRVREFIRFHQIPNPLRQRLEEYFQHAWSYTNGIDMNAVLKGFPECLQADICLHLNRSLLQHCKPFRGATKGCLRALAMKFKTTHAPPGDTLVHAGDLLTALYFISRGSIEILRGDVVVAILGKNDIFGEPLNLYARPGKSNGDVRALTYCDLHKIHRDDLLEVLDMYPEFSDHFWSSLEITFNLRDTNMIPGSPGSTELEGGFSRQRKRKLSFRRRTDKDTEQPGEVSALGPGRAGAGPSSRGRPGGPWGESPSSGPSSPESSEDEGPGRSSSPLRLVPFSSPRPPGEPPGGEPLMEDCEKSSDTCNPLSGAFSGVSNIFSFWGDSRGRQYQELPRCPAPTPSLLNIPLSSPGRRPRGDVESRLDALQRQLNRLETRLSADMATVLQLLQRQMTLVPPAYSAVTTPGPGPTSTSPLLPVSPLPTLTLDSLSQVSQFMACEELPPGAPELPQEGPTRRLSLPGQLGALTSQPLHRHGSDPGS
Description: Inhibition of human ERG after 4 hrs by fluorescence polarization assay

CYP3A4 = CYP3A4 (Homo sapiens, UniProt P08684); experiment: Inhibition of CYP3A4 in human liver microsomes assessed as reduction in midazolam 1-hydroxylase activity at 10 uM preincubated for 5 mins followed by NADPH addition and measured after 15 mins by LC-MS/MS analysis relative to control; type: ADME; settings: probe midazolam (1-hydroxylation)
CYP3A4, sequence (P08684 whole entry): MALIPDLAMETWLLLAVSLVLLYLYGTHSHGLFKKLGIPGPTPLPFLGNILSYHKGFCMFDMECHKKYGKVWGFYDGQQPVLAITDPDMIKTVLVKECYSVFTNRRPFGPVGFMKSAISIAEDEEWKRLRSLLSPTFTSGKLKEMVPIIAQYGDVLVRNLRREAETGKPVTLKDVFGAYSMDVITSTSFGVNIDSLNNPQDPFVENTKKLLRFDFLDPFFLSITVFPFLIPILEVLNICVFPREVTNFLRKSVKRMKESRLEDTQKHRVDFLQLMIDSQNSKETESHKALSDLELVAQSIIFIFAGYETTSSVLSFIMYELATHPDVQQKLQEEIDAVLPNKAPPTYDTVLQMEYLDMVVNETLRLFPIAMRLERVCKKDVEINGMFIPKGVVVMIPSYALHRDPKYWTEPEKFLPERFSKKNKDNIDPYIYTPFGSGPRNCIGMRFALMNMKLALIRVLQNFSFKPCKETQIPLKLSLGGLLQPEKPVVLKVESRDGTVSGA

CYP2C9 = CYP2C9 (Homo sapiens, UniProt P11712); experiment: Inhibition of CYP2C9 in human liver microsomes assessed as reduction in tolbutamide 4-hydroxylase activity at 10 uM preincubated for 5 mins followed by NADPH addition and measured after 15 mins by LC-MS/MS analysis relative to control; type: ADME; settings: probe tolbutamide (4-hydroxylation)
CYP2C9, sequence (P11712 whole entry): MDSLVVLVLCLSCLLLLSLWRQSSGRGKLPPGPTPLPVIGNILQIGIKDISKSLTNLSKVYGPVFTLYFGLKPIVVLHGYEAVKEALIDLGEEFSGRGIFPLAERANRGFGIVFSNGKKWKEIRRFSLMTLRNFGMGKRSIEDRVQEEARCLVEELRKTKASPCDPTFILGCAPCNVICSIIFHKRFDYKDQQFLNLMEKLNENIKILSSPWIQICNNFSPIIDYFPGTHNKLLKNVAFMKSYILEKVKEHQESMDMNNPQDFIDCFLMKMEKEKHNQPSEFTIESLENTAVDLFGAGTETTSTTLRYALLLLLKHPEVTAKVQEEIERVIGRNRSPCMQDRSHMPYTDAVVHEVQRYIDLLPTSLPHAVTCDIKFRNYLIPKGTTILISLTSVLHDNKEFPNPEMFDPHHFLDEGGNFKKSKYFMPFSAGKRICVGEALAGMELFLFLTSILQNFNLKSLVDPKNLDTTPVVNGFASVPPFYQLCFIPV

[10] = Metabolic stability in mouse liver microsomes assessed as compound remaining at 1 uM after 30 mins in presence of NADPH regeneration system by LC-MS/MS analysis; type: ADME, Microsome; settings: read-out: Stability
[11] = Effective permeability of the compound at 10 uM after 5 hrs by PAMPA; type: ADME; settings: read-out: Peff
CYP2C19 = CYP2C19 (Homo sapiens, UniProt P33261); experiment: Inhibition of CYP2C19 in human liver microsomes assessed as reduction in S-mephenytoin 4-hydroxylase activity at 10 uM preincubated for 5 mins followed by NADPH addition and measured after 15 mins by LC-MS/MS analysis relative to control; type: ADME; settings: probe S-mephenytoin (4-hydroxylation)
CYP2C19, sequence (P33261 whole entry): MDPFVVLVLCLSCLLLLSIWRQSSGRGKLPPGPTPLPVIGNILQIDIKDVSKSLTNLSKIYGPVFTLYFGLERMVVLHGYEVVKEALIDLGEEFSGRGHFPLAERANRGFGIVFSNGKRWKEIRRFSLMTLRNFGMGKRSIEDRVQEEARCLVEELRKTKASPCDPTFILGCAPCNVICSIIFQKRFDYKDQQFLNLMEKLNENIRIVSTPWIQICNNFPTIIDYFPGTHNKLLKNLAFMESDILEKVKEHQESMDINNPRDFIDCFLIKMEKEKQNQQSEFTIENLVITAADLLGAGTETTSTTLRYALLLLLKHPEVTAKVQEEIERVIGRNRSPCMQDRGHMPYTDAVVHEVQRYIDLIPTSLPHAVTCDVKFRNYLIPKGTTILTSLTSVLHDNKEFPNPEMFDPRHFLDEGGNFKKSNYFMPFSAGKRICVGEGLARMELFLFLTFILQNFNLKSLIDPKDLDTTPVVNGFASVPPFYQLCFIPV

[12] = Terminal half life in Sprague-Dawley rat at 1 mg/kg, iv by LC-MS/MS analysis; type: ADME, organism-based; settings: in vivo, read-out: beta t1/2 (converted)
[13] = AUC (0 to infinity) in Sprague-Dawley rat at 1 mg/kg, iv by LC-MS/MS analysis; type: ADME, organism-based; set-up: dose 1 mg/kg, time infinity, route intravenous; settings: in vivo
[14] = AUC (0 to infinity) in Sprague-Dawley rat at 9 to 10 mg/kg, po via gavage by LC-MS/MS analysis; type: ADME, organism-based; settings: in vivo
[15] = Cmax in Sprague-Dawley rat at 9 to 10 mg/kg, po via gavage by LC-MS/MS analysis; type: ADME, organism-based; settings: in vivo
in vivo [16] = settings: Sprague-Dawley, rat, iv, 1 mg/kg; remark: listed apart in the source
Estrogen receptor = biological target: T3, Estrogen receptor (Homo sapiens, UniProt P03372)
T3 sequence (P03372 whole entry): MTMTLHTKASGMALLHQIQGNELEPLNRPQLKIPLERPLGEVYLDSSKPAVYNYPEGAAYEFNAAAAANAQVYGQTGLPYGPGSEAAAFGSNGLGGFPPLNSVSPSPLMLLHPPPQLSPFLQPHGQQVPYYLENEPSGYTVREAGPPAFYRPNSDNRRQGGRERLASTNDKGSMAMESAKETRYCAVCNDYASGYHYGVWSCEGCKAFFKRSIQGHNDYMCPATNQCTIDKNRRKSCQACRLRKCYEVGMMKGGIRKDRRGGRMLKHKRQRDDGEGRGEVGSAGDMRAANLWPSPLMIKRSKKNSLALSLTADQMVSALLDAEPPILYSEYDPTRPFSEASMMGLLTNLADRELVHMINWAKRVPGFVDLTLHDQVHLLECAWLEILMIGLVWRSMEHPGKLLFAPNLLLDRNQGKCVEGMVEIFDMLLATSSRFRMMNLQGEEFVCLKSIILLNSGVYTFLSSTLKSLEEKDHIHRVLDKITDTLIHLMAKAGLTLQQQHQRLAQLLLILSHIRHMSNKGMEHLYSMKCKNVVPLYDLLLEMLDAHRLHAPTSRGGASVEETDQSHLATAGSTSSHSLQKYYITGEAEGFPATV

[17] = Tmax in Sprague-Dawley rat at 9 to 10 mg/kg, po via gavage by LC-MS/MS analysis; type: ADME, organism-based; settings: in vivo
[18] = biological target: T4, Steroid hormone receptor ERR2 (Homo sapiens, UniProt O95718); experiment: Binding affinity to ERRbeta (unknown origin) using fluorescein-conjugated coactivator PGC-1alpha incubated for 1 hr by TR-FRET assay
T4 sequence (O95718 whole entry): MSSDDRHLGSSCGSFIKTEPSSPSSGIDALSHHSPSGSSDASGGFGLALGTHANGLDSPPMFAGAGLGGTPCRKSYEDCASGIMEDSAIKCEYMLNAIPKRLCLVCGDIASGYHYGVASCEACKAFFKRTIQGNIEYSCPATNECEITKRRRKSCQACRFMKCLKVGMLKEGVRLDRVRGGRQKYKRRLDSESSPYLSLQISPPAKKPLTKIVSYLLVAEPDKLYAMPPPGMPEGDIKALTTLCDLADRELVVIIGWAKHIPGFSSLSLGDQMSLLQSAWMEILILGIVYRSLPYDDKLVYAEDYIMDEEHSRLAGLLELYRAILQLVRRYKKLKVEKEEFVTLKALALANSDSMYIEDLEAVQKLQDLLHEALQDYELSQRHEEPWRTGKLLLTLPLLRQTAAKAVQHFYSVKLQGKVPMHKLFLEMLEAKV

Row | Structure (SMILES) | clearance (in vivo [1]) [mL/min/kg] | bioavailability [2] [%] | Vd (in vivo [3]) [L/kg] | AUC [4] [µM·h] | inhibition at 0.25 h, 10 µM (CYP1A2) [%] | IC50 [5] [µM] | inhibition at 0.25 h, 10 µM (CYP2D6) [%] | remaining at 0.5 h, 1 µM [6] [%] | remaining at 0.5 h, 1 µM [7] [%] | remaining at 0.5 h, 1 µM [8] [%] | IC50 [9] [µM] | inhibition at 0.25 h, 10 µM (CYP3A4) [%] | inhibition at 0.25 h, 10 µM (CYP2C9) [%] | remaining at 0.5 h, 1 µM [10] [%] | Papp at 5 h, 10 µM [11] [×10⁻⁶ cm/s] | inhibition at 0.25 h, 10 µM (CYP2C19) [%] | half-life [12] [h] | AUC(0-inf) [13] [µM·h] | AUC(0-inf) [14] [µM·h] | IC50 (Estrogen receptor) [µM] | further results
1 | CN(C)CCOc1ccc(/C(=C(/CCCO)c2ccccc2)c2ccc(O)cc2)cc1.Cl | 44 | 8.4 | 16.8 | 0.68 | – | – | – | – | – | – | – | – | – | – | – | – | – | – | – | – | –
2 | CC(C)N1CCN(c2ccc(/C(=C(/CCCO)c3ccccc3)c3ccc(O)cc3)cc2)CC1.Cl.Cl | – | – | – | – | 12 | > 10 | 36.5 | 32.5 | 26.6 | 49.7 | 18.7 | 33.6 | 13.9 | 19.9 | 0.46 | 18.8 | – | – | – | – | –
3 | Cc1ccc(/C(=C(\CCCO)c2ccccc2)c2ccc(N3CCN(C(C)C)CC3)cc2)cc1.Cl.Cl | 58 | 17.6 | 9.8 | 1.02 | 10.2 | > 10 | 31.1 | 40 | 54.2 | – | > 30 | 47 | 26.6 | 19.7 | 2.09 | 30.3 | 3.1 | 0.64 | 1.41 | > 10 | Cmax [15]: 160 nM; AUC (in vivo [16]): 0.58 µM·h; Tmax [17]: 4 h
4 | Cc1ccc(/C(=C(\CCCO)c2ccccc2)c2ccc(N3CCN(C)CC3)cc2)cc1.Cl.Cl | 139 | 18.3 | 30.3 | 0.45 | 0 | > 10 | 31.8 | 65.7 | 79.2 | – | 18.9 | 29.1 | 37.7 | 47.6 | 4.84 | 27.2 | 2.5 | 0.29 | 0.66 | > 10 | Cmax [15]: 80 nM; AUC (in vivo [16]): 0.28 µM·h; Tmax [17]: 2.8 h
5 | Cc1ccc(/C(=C(\CCCO)c2ccccc2)c2ccc(N3CCNCC3)cc2)cc1.Cl.Cl | – | – | – | – | 28.7 | > 10 | 38.5 | 71.5 | 44 | 58 | – | 59.9 | 39.3 | 28.8 | 3.61 | 57.7 | – | – | – | > 10 | IC50 [18]: 2.1 µM
